Test [1] deals with tyrosine kinase of Epidermal Growth Factor Receptor (Homo sapiens, UniProt P00533). The note with it: Rewcastle et al. 1995; read-out: IC50 EGFR tyrosine kinase; cited from earlier work.
For test [2], the system named is T-47D cells. The test is described as follows: Caspase cascade activation (N-(Ac-DEVD)-N′-ethoxycarbonyl-R110 fluorogenic substrate) in T-47D cells. The format is cell-based, Human. The note with it: for EC50: Homo sapiens, T47D; for Caspase activity Ratio T-47D (24 hr) / Caspase activity Ratio T-47D (48 hr): ratio of net RFU to control.
The next test concerns DLD cells. The test can be described thus: Inhibition of cell proliferation (GI50, CellTiter-Glo). In kind it is cell-based. The note with it: Homo sapiens; 48 h incubation. On the procedure: (§1) T-47D, DLD, H1299, MX-1 and SW620 cells were grown and harvested as in Example 143. […] An aliquot of 45 μL of cells was added to a well of a 96-well microtiter plate containing 5 μL of a 10% DMSO in RPMI-1640 media solution without compound as the control sample for maximal cell proliferation (LMax). The samples were mixed by agitation and then incubated at 37° C. for 48 h in a 5% CO2-95% humidity incubator. After incubation, the samples were removed from the incubator and 25 μL of CellTiter-Glo™ reagent (Promega) was added. The samples were mixed by agitation and incubated at room temperature for 10-15 min. Plates were then read using a luminescent plate reader (Model SPECTRAfluor Plus, Tecan) to give Ltest values.
(§2) The samples were mixed by agitation and then incubated at 37° C. for 0.5 h in a 5% CO2-95% humidity incubator. After incubation, the samples were removed from the incubator and 25 μL of CellTiter-Glo™ reagent (Promega) was added. The samples were mixed by agitation and incubated at […] 10-15 min at room temperature in a 5% CO2-95% humidity incubator. Fluorescence was read as above, (LStart) defining luminescence for initial cell number used as baseline in GI50 determinations.
(In general: In ATP-based viability assays light output follows the ATP content of the culture.)

The test system of a further test is H1299 cells. The description is as above. In kind it is cell-based. The note with it: Homo sapiens, NCI-H1299; 48 h incubation. On the procedure:
as §1, §2

The next test relates to MX-1 cells. The test is described as above. The note with it: Homo sapiens, MX1; 48 h incubation. The format is cell-based. As for the experimental part: as §1, §2
A further test has as its system SW620 cells. The description is as above. In kind it is cell-based. The note with it: Homo sapiens, SW-620; 48 h incubation. As for the experimental part: as §1, §2
Test [3] has as its system T-47D cells. The description is as above. In kind it is cell-based. The note with it: Homo sapiens, T47D; 48 h incubation. As for the experimental part:
as §1, §2

Test [4] relates to tubulin (Cytoskeleton #ML113, MAP-rich). The test is described as follows: Inhibition of tubulin polymerization (DAPI fluorescence). The format is biochemical. The note with it: 30 minutes preincubation, 30 minutes at 37° C. On the procedure:
Lyophilized tubulin (Cytoskeleton #ML113, 1 mg, MAP-rich) was assayed for the effect of the test compound on tubulin polymerization as measured by change in fluorescence for 4′,6-diamidino-2-phenylindole (DAPI) (Barron, D. M. et al. Analytical Biochem., 2003, 315, 49-56.). 1 μl of serial dilutions of each test compound (from 100×DMSO stock) was added in 96 well plate format and preincubated for 30 minutes with 94 ul of the non-GTP supplemented tubulin supernatant. 5 μl of DAPI/GTP solution was added to initiate polymerization and incubated for 30 minutes at 37° C. Fluorescence was read with excitation 350 nm, emission wavelength 485 nm on a Tecan Spectraflour Plus. Polymerized tubulin (DMSO and with the tubulin stabilizer Taxol® (paclitaxel)) gives a higher DAPI fluorescence as compared to non-polymerized tubulin (vinblastine and colchicine used to determine baseline).

In another test the target is T1, Topoisomerase I (Homo sapiens, UniProt P11387).
T1 sequence (P11387 1-765): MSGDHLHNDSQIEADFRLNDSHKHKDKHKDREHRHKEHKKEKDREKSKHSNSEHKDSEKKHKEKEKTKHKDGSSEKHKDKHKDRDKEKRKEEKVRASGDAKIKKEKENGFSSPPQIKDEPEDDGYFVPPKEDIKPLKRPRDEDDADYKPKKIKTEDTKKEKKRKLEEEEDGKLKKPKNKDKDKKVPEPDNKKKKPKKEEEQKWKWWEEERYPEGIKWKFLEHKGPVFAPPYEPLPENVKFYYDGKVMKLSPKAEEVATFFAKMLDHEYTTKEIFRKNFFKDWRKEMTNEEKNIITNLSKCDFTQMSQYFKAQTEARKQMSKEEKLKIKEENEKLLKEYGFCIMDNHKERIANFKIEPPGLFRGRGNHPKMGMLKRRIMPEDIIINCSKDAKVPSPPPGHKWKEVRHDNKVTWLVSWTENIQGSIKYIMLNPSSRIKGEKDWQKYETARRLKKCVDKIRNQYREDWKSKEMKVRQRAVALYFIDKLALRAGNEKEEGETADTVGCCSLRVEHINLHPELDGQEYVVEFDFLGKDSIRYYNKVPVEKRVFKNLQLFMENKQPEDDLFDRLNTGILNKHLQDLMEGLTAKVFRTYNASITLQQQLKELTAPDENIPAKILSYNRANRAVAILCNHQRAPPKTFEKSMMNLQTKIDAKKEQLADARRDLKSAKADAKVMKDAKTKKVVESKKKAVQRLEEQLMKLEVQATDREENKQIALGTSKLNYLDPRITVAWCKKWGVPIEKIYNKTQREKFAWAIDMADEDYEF
The test can be described thus: Topoisomerase I activity assay (relaxation of supercoiled DNA, gel). The note with it: FIG. 2.

The target in a further test is Topoisomerase II (Homo sapiens, UniProt P11388). The test can be described thus: Topoisomerase II activity assay (relaxation of supercoiled DNA, gel). The note with it: FIG. 1, Example 1 Compound at 100 μM.
Chain of Topoisomerase II (P11388 whole entry): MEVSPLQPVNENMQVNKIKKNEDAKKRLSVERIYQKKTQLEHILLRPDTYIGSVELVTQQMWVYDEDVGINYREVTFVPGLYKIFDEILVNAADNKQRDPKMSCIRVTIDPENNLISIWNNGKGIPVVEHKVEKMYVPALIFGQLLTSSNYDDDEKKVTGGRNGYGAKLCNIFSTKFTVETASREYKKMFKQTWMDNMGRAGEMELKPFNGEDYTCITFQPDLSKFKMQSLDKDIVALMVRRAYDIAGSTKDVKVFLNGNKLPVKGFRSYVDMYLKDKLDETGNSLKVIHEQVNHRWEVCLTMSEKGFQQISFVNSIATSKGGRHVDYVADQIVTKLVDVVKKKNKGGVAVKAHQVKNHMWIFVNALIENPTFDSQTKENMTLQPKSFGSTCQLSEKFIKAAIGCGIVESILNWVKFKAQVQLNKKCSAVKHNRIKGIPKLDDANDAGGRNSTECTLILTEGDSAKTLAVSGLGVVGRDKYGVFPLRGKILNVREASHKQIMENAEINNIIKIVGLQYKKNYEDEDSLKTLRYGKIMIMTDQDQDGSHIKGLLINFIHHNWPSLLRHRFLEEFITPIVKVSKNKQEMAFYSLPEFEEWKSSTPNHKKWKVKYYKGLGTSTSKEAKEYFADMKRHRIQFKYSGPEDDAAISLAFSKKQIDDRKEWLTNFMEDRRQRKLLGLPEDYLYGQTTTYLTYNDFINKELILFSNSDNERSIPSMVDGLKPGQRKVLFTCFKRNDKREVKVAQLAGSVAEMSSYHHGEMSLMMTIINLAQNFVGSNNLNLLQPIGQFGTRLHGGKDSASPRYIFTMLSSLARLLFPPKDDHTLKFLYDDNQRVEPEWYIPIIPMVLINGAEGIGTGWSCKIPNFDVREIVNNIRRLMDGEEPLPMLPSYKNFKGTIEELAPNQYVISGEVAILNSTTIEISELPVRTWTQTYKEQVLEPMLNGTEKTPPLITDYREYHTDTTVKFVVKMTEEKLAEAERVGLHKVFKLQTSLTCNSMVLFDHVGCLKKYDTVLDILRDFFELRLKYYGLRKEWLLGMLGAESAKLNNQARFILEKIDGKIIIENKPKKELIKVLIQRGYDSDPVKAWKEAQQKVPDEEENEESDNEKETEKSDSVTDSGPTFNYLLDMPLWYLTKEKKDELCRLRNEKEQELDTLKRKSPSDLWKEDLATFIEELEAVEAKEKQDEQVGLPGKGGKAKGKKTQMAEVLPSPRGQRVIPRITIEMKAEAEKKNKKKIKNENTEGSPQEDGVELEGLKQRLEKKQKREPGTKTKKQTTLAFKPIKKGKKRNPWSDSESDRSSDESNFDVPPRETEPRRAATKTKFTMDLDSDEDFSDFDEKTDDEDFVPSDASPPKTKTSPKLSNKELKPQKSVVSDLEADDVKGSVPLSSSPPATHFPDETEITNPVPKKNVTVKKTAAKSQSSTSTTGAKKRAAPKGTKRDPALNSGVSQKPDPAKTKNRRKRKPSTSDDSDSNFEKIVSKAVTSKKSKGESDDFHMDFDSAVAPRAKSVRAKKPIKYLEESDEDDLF
Test [5] addresses T2, Human Type II Topoisomerase (p170 Form) (Homo sapiens, UniProt P11388).
T2 construct: purchased TopoGEN, Inc., Columbus, Ohio
The test can be described thus: Photo-crosslinking of radiolabeled compound to Topoisomerase II. The format is binding. The note with it: 50 nM, 60 minutes, UV 254 nm; FIG. 3. As for the experimental part: 30 Units (15 ul) Human Type II Topoisomerase (p170 Form) (from TopoGEN, Inc., Columbus, Ohio) was incubated with 50 nM radiolabeled Example 102 compound for 60 minutes at room temperature.
(Radiolabeled Example 102 compound stock is 16.67 uM, 60 Ci/mmol, 1 Ci/ml American Radiolabeled Chemicals, Inc., St. Louis, Mo. Samples were either UV irradiated (+) with a short wavelength UV Source (254 nm) for 10 minutes at a distance of 3.5 cm or not irradiated (−). 8 ul of 5× sample buffer (150 mM Tris, pH 6.8, 50% glycerol, 1% SDS, 50 mM dithiothreitol, 62 mg/ml bromophenol blue) was added to the samples and boiled for 5 minutes. The entire sample was then loaded onto a 6% Tris-Glycine SDS-gel (10 well, 1.5 mm thickness) (Invitrogen, Carlsbad, Calif.). The gel was stained with 1% Coomassie Brilliant Blue in 40% methanol, 7.5% acetic acid for 2 hours then de-stained in several changes of de-stainer (40% methanol, 7.5% acetic acid). The gel was then incubated in Amplify (Amersham, Piscataway, N.J.) for 30 minutes at room temperature and then dried down on Whatman filter paper at 80° C. for 2 hours on a gel dryer. The dried gel was put on Hyperfilm (Amersham) in a film cassette and placed at −80° C. for 5-7 days.

Like-named read-outs stand apart in the source and are kept apart here. Bounds are passed on as bounds.

The text below walks through data of patent US7618975B2, “4-arylamino-quinazolines and analogs as activators of caspases and inducers of apoptosis and the use thereof” (Myriad Pharmaceuticals, Inc., priority 2003, dated 2009).

T2 sequence (P11388 whole entry): as above
Chain of tyrosine kinase of Epidermal Growth Factor Receptor (P00533 25-1210): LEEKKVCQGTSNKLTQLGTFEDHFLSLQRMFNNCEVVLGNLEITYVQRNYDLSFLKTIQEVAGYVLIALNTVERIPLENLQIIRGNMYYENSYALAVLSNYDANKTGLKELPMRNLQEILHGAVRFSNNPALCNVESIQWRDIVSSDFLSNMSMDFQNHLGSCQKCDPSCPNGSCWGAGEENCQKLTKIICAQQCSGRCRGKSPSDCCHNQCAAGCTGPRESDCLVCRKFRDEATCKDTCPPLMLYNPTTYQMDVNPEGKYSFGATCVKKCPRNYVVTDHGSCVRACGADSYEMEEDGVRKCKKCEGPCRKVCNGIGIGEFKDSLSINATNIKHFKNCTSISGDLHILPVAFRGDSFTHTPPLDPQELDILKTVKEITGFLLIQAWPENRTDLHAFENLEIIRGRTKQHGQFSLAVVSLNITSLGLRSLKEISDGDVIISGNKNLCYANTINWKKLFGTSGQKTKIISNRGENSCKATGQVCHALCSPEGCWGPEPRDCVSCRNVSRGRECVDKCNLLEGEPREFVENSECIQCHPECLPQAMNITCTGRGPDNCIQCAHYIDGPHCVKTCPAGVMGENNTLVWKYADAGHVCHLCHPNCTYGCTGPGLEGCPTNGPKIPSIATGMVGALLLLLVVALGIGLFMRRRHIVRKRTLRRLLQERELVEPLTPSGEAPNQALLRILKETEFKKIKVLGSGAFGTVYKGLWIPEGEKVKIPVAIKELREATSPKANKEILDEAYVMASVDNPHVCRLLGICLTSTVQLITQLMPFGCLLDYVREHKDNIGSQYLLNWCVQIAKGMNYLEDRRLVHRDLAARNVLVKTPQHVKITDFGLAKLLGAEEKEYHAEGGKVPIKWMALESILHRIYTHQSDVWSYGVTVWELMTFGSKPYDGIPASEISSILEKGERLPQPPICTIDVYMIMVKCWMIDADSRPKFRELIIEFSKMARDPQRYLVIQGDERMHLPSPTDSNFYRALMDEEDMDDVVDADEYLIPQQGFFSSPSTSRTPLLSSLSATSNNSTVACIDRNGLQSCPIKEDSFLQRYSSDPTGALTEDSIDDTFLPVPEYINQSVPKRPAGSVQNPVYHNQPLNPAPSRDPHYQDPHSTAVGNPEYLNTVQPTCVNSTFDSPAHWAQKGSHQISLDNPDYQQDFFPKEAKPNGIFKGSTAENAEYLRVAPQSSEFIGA

In the case of `CN(c1ccccc1)c1ncnc2ccccc12` [R1═Me, R2═R3═R4═H], in [1], the IC50 is above 100 µM.
In the case of `COc1ccc(N(C)c2ncnc3ccccc23)cc1` [Example 34, (4-Methoxy-phenyl)-methyl-quinazolin-4-yl-amine], the EC50 in the test with T-47D cells [2] (T-47D, 24 hr, read-out: Caspase potency EC50 (nM) T-47D (24 hr)) was 7 nM; with T-47D cells [2] (Table III, time not printed (values repeat Table I 24 hr or 48 hr), read-out: Caspase activation (EC50 nM)) it was 7 nM. For the same molecule, the “Caspase activity Ratio T-47D (24 hr)” value in the test with T-47D cells [2] (T-47D, 24 hr) is 7.5. Moreover, the GI50 in the test with DLD cells came to 76 nM; with H1299 cells, 59 nM; in the test with MX-1 cells, 73 nM; with SW620 cells, 55 nM; in the test with T-47D cells [3], 503 nM. The molecule further returned an IC50 in test [4] of 1 µM.
As for `COc1ccc(N(C)c2nc(Cl)nc3ccccc23)cc1` [Example 1], the “Caspase activity Ratio T-47D (24 hr)” value in the test on T-47D cells [2] (T-47D, 24 hr) came out at 8.7. Besides, the IC50 in test [4] is below 0.5 µM. In addition, at Topoisomerase I, the “Effect on topoisomerase I-dependent relaxation of supercoiled DNA” value is on record as “no apparent effect”. Also, the “Inhibition of topoisomerase II-dependent relaxation of supercoiled DNA” value on Topoisomerase II is given as “inhibition of DNA relaxation is substantial”.
For the molecule `COc1cc([C@@H]2c3cc4c(cc3[C@@H](O[C@@H]3O[C@@H]5CO[C@@H](C)O[C@H]5[C@H](O)[C@H]3O)[C@H]3COC(=O)[C@H]23)OCO4)cc(OC)c1O` [VP-16, etoposide, reference compound], the “Effect on topoisomerase I-dependent relaxation of supercoiled DNA” value at Topoisomerase I was “no apparent effect”.
For `CN(c1ccccc1)c1nc(Cl)nc2ccccc12` [Example 6, (2-Chloro-quinazolin-4-yl)-phenyl-methyl-amine], the “Caspase activity Ratio T-47D (24 hr)” value in the test with T-47D cells [2] (T-47D, 24 hr) is recorded as 6.7. In [4], this molecule showed an IC50 of 4 µM.
Turning to `COc1ccc(OC)c(N(C)c2nc(Cl)nc3ccccc23)c1` [Example 42, (2-Chloro-quinazolin-4-yl)-(2,5-dimethoxy-phenyl)-methyl-amine], in the test with T-47D cells [2] (T-47D, 24 hr), the “Caspase activity Ratio T-47D (24 hr)” value stood at 8.6. Besides, the “Caspase activity Ratio T-47D (48 hr)” value in the test on T-47D cells [2] (T-47D) came to 14.6. In test [4], this molecule returned an IC50 of 5 µM.
For the molecule `COc1ccc(N(C)c2nccc3ccccc23)cc1` [Example 65, (Isoquinolin-1-yl)-(4-methoxy-phenyl)-methyl-amine], the “Caspase activity Ratio T-47D (48 hr)” value in the test with T-47D cells [2] (T-47D) was 13.7. The molecule also registered an IC50 in [4] of 10 µM.
With “Radiolabeled (4-Azido-phenyl)-(2-methyl-quinazolin-4-yl)-methyl-amine [Radiolabeled Example 102 compound]”, the “Binding to Topoisomerase II (UV crosslinking)” value in test [5] is given as “binds sufficiently well to Topoisomerase II to crosslink to the enzyme when photoactivated”.
`COc1ccc(N(C)c2nc(N)nc3ccccc23)cc1` [Example 12, N^4-(4-Methoxy-phenyl)-N^4-methyl-quinazoline-2,4-diamine]: the “Caspase activity Ratio T-47D (24 hr)” value in the test with T-47D cells [2] (T-47D, 24 hr) was 5.3. Further, in the test with T-47D cells [2] (T-47D), the “Caspase activity Ratio T-47D (48 hr)” value came out at 12.8. For the same molecule, in test [4], the IC50 turned out to be 2 µM.
`Cc1ccc(N(C)c2ncnc3ccccc23)cc1` [Example 35, (4-Methyl-phenyl)-methyl-quinazolin-4-yl-amine]: in the test with T-47D cells [2] (T-47D, 24 hr), the “Caspase activity Ratio T-47D (24 hr)” value came to 7.2. The molecule also yielded an IC50 in test [4] of 4 µM.
With `COc1ccc(Nc2nc(Cl)nc3ccccc23)cc1` [Example 7, (2-Chloro-quinazolin-4-yl)-(4-methoxy-phenyl)-amine], the “Caspase activity Ratio T-47D (24 hr)” value in the test on T-47D cells [2] (T-47D, 24 hr) came to 1.2. Moreover, the “Caspase activity Ratio T-47D (48 hr)” value in the test on T-47D cells [2] (T-47D) worked out at 1.0. Further, the IC50 in [4] is above 50 µM.
Take `COc1ccc(N(C)c2nc(NC/C=C(\C)CCC=C(C)C)nc3ccccc23)cc1` [Example 13, N^2-(3,7-Dimethyl-octa-2,6-dienyl)-N^4-(4-methoxy-phenyl)-N^4-methyl-quinazoline-2,4-diamine]: in the test on T-47D cells [2] (T-47D, 24 hr), the “Caspase activity Ratio T-47D (24 hr)” value worked out at 8.9. This molecule also returned an IC50 in [4] of 6 µM.

By IC50 is commonly meant the concentration needed to halve the response being measured. The term EC50 denotes the concentration giving half of the maximal effect. As usually defined, the GI50 is the concentration at which growth is held to half of that of the control.
